Results reported in publication doi:10.1101/2025.07.15.665002v1 (biorxiv, 2025).
Positions count from the first letter of the chain named. Read-outs that look alike come from different tables or passages of the source.

Assays:
[1] = molecular target: T1, hMDH2 (Homo sapiens, UniProt P40926); assay: NADH oxidation at […] nm; format: biochemical; conditions: read-out: % of control activity remaining at 10.0 mM
T1 sequence (P40926 25-338): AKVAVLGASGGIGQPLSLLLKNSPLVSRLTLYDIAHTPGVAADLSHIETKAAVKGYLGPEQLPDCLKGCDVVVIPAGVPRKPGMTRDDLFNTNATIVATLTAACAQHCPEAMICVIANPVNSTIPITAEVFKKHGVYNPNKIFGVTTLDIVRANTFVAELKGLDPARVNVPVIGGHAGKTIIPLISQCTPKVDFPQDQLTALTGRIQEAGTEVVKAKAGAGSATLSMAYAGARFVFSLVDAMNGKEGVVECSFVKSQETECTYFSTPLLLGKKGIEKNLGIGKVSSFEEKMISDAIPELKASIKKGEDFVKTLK

[2] = molecular target: T2, hMDH2 (Homo sapiens, UniProt P40926, H131W); format: binding
T2 sequence (P40926 25-338 H131W): T1 sequence (P40926 25-338) with H107W

[3] = molecular target: T2, hMDH2; format: binding; remark: listed apart in the source
[4] = molecular target: T1, hMDH2; assay: NADH oxidation at […] nm; format: biochemical; conditions: read-out: % inhibition at 10.0 mM

Compound | remaining activity at 10000 µM [1] | Kd [2] | Kd [3] | inhibition at 10000 µM [4]
O=C(O)CC(O)(CC(=O)O)C(=O)O [citrate] | 31% |  |  | 
O=C(O)CCC(=O)C(=O)O [α-ketoglutarate] |  |  | 10.4 ± 1.45 mM | 51.7%
Nc1ncnc2c1ncn2[C@@H]1O[C@H](COP(=O)(O)OP(=O)(O)O)[C@@H](O)[C@H]1O [ADP] | 18.7% | 3.77 ± 0.27 mM |  | 

Continued, values first:

remaining activity at 10000 µM [1] | Kd [2] | Kd [3] | inhibition at 10000 µM [4] | Compound
29.1% | 9.63 ± 0.68 mM |  |  | Nc1ncnc2c1ncn2[C@@H]1O[C@H](COP(=O)(O)OP(=O)(O)OP(=O)(O)O)[C@@H](O)[C@H]1O [ATP]
13.2% | 1.02 ± 0.039 mM |  |  | NC(=O)c1ccc[n+]([C@@H]2O[C@H](COP(=O)(O)OP(=O)(O)OC[C@H]3O[C@@H](n4cnc5c(N)ncnc54)[C@H](O)[C@@H]3O)[C@@H](O)[C@H]2O)c1 [NAD^+]
